Measurements reported in ChEMBL document CHEMBL5584236, “Development of novel bisphenol derivatives with a membrane-targeting mechanism as potent gram-positive antibacterial agents” (Eur J Med Chem, 2024).

Tests used:
Staphylococcus aureus [1] = assay: Antibacterial activity against Staphylococcus aureus ATCC29213 assessed as reduction in microbial growth incubated for 22 to 24 hrs by CLSI based broth microdilution method; type: functional; conditions: time 22-24 hrs
Staphylococcus aureus [2] = assay: Antibacterial activity against methicillin-resistant Staphylococcus aureus N315 assessed as reduction in microbial growth incubated for 22 to 24 hrs by CLSI based broth microdilution method; type: functional; conditions: time 22-24 hrs
Staphylococcus aureus [3] = assay: Antibacterial activity against methicillin-resistant Staphylococcus aureus NCTC10442 assessed as reduction in microbial growth incubated for 22 to 24 hrs by CLSI based broth microdilution method; type: functional; conditions: time 22-24 hrs
Escherichia coli = assay: Antibacterial activity against Escherichia coli ATCC25922 assessed as reduction in microbial growth incubated for 22 to 24 hrs by CLSI based broth microdilution method; type: functional; conditions: time 22-24 hrs
[4] = Hemolytic activity against rabbit RBC incubated for 1 hr by multimode plate reader; type: toxicity, cell-based, Oryctolagus cuniculus, Erythrocyte; conditions: rabbit red blood cells (erythrocytes)

Compound | MIC (Staphylococcus aureus [1]) | MIC (Staphylococcus aureus [2]) | MIC (Staphylococcus aureus [3]) | MIC (Escherichia coli) | HC50 at 1 h [4]
CC(C)=CCOc1ccc(S(=O)(=O)c2ccc(OCCOCCNC(=N)N)cc2)cc1 | 6.25 µg/mL | 3.12 µg/mL | 3.12 µg/mL | 50 µg/mL | > 200 µg/mL
COC(=O)[C@H](CCCNC(=N)N)NC(=O)[C@H](CCCNC(=N)N)NC(=O)[C@H](CCCNC(=N)N)NC(=O)COc1ccc(S(=O)(=O)c2ccc(OC/C=C(/C)CCC=C(C)C)cc2)cc1 | 0.78 µg/mL | 0.78 µg/mL | 0.78 µg/mL | 6.25 µg/mL | 165 µg/mL
COC(=O)[C@H](CCCNC(=N)N)NC(=O)COc1ccc(S(=O)(=O)c2ccc(OC(C)C)cc2)cc1 | > 50 µg/mL | > 50 µg/mL | > 50 µg/mL | > 50 µg/mL | > 200 µg/mL
CCOC(=O)COc1ccc(S(=O)(=O)c2ccc(OC/C=C(/C)CCC=C(C)C)cc2)cc1 | > 50 µg/mL | > 50 µg/mL | > 50 µg/mL | > 50 µg/mL | > 200 µg/mL
CCOC(=O)COc1ccc(S(=O)(=O)c2ccc(OCC=C(C)C)cc2)cc1 | > 50 µg/mL | > 50 µg/mL | > 50 µg/mL | > 50 µg/mL | > 200 µg/mL
CC(C)=CCOc1ccc(S(=O)(=O)c2ccc(OCCCNC(=N)N)cc2)cc1 | 6.25 µg/mL | 3.12 µg/mL | 3.12 µg/mL | 50 µg/mL | > 200 µg/mL
COC(=O)[C@H](CCCNC(=N)N)NC(=O)[C@H](CCCNC(=N)N)NC(=O)COc1ccc(S(=O)(=O)c2ccc(OCC=C(C)C)cc2)cc1 | 25 µg/mL | 6.25 µg/mL | 6.25 µg/mL | > 50 µg/mL | > 200 µg/mL
COC(=O)[C@H](CCCNC(=N)N)NC(=O)COc1ccc(S(=O)(=O)c2ccc(OCC=C(C)C)cc2)cc1 | 25 µg/mL | 12.5 µg/mL | 12.5 µg/mL | > 50 µg/mL | 200 µg/mL
C=CCCCCCOc1ccc(S(=O)(=O)c2ccc(OCCCCNC(=N)N)cc2)cc1 | 1.56 µg/mL | 0.78 µg/mL | 0.78 µg/mL | > 50 µg/mL | > 200 µg/mL
C=CCOc1ccc(S(=O)(=O)c2ccc(OCC(=O)N[C@@H](CCCNC(=N)N)C(=O)OC)cc2)cc1 | > 50 µg/mL | > 50 µg/mL | > 50 µg/mL | > 50 µg/mL | > 200 µg/mL
CCOC(=O)COc1ccc(S(=O)(=O)c2ccc(OC(C)C)cc2)cc1 | > 50 µg/mL | > 50 µg/mL | > 50 µg/mL | > 50 µg/mL | > 200 µg/mL
COC(=O)[C@H](CCCNC(=N)N)NC(=O)COc1ccc(S(=O)(=O)c2ccc(OC/C=C(/C)CCC=C(C)C)cc2)cc1 | > 50 µg/mL | 50 µg/mL | 50 µg/mL | > 50 µg/mL | > 200 µg/mL
CC(C)=CCOc1ccc(S(=O)(=O)c2ccc(OCCCCN)cc2)cc1 | 25 µg/mL | 6.25 µg/mL | 6.25 µg/mL | > 50 µg/mL | > 200 µg/mL
